Laboratory results as given in patent US8563516B2, “Foxp3 peptide vaccine” (OncoTherapy Science, Inc., priority 2007, dated 2013).

What was measured:
[1] = tested on: peptide-pulsed A24LCL cells; test: IFN-gamma ELISPOT on CTLs induced with HLA-A2402 restricted Foxp3 peptides; type: cell-based, human; conditions: FIG. 1A/1B
From the text: (§1) Monocyte-derived dendritic cells (DCs) were used as antigen-presenting cells (APCs) to induce CTL responses against peptides presented on HLA. DCs were generated in vitro as described elsewhere (Horiguchi S. et al. Cancer Res. 59:2950-6). Specifically, peripheral blood mononuclear cells (PBMCs) isolated from normal volunteer (HLA-A*2402 and/or HLA-A*0201) with Ficoll-Plaque (Pharmacia) solution were separated by adherence to plastic tissue culture dish (Becton Dickinson) so as to enrich them for the monocyte fraction. The monocyte-enriched population was cultured in the presence of 1000 U/ml of GM-CSF (R&D System) and 1000 U/ml of IL-4 (R&D System) in AIM-V medium (Invitrogen) containing 2% heat-inactivated autologous serum (AS). After 7 days in the culture, the cytokine-generated DCs were pulsed with 20 mcg/ml of the synthesized peptides in the presence of 3 mcg/ml of beta2-microglobulin for 4 hrs at 20 degrees C. in AIM-V medium. These peptide-pulsed DCs were then inactivated with mitomycin C (MMC) (30 mcg/ml for 30 mins) and mixed at a 1:20 ratio with autologous CD8+ T cells, obtained by positive selection with CD8 Positive Isolation Kit (Dynal). These cultures were set up in 48-well plates (Corning); each well contained 1.5×10^4 peptide-pulsed DCs, 3×10^5 CD8+ T cells and 10 ng/ml of IL-7 (R&D System) in 0.5 ml of AIM-V/2% AS. Three days later, these cultures were supplemented with IL-2 (CHIRON) to a final concentration of 20 IU/ml. On day 7 and 14, the T cells were further restimulated with the peptide-pulsed autologous DCs. The DCs were prepared each time through the same procedure described above. CTL activity was tested against peptide-pulsed A24LCL cells or T2 cells after the 3rd round of peptide stimulation on day 21.
(§2) To examine the specific CTL activity, IFN-gamma ELISPOT assay and IFN-gamma ELISA were performed. Briefly, peptide-pulsed A24-LCL, T2 cell (1×10^4/well) or the cells endogenously expressing Foxp3 and HLA molecule was prepared as a stimulator cells. Cultured CTL lines in 48 wells were used as a responder cells. IFN-gamma ELISPOT assay and IFN-gamma ELISA were performed under manufacture procedure.
CTLs for the peptides derived from Foxp3 protein were generated according to the method described in the “Materials and Methods”, supra.

[2] = tested on: peptide-pulsed A24LCL cells or T2 cells; test: In vitro CTL induction by peptide-loaded dendritic cells (summary statements); type: cell-based, human; conditions: for specific CTL activity: against peptide pulsed target cells; for establishment of CTLs: in vitro stimulation of T-cells by DCs loaded with peptide
From the text: Confirmation of CTL inducibility can be accomplished by inducing antigen-presenting cells carrying human MHC antigens (for example, B-lymphocytes, macrophages, and dendritic cells), or more specifically dendritic cells derived from human peripheral blood mononuclear leukocytes, and after stimulation with the peptides, mixing with CD8-positive cells, and then measuring the IFN-gamma produced and released by CTL against the target cells. As the reaction system, transgenic animals that have been produced to express a human HLA antigen (for example, those described in BenMohamed L, Krishnan R, Longmate J, Auge C, Low L, Primus J, Diamond D J, Hum Immunol 61(8): 764-79, 2000 August, Related Articles, Books, Linkout Induction of CTL response by a minimal epitope vaccine in HLA A*0201/DR1 transgenic mice: dependence on HLA class II restricted T(H) response) can be used. For example, the target cells can be radiolabeled with ^51Cr and such, and cytotoxic activity can be calculated from radioactivity released from the target cells. Alternatively, it can be examined by measuring IFN-gamma produced and released by CTL in the presence of antigen-presenting cells that carry immobilized peptides, and visualizing the inhibition zone on the media using anti-IFN-gamma monoclonal antibodies.
as §1, §2

HLA-A2 molecule = molecular target: T1, HLA-A2 molecule (Homo sapiens, UniProt P04439, D140Y/D185E/D98H/E176V/E277Q/G131W/G231S/I119V/I121R/I166T/I218V/L300P/L318F/N151K/N90K/P208A/P217A/Q86G/Q94H/R138H/R169H/T345S); test: CTL induction with Foxp3-9-252 substitutions restricted HLA-A*0201; type: cell-based; conditions: FIG. 7C; for IFN-gamma production compared with the control: positive wells
T1 construct: peripheral blood mononuclear cells (PBMCs) isolated from normal volunteer (HLA-A*2402 and/or HLA-A*0201); endogenous in cells; host or cells: monocyte-derived dendritic cells of HLA-A*0201 volunteers; T2 cells as stimulators in the read-out
Protocol: In FIG. 7C CTLs could be induced by stimulation with Foxp3-9-252 substitutions targeted HLA-A2 molecule. CTLs for all substituted peptides targeted HLA-A2 molecule were generated in the way as described in “Materials and Methods”. […] CTL line induced with Foxp3-9-252-9V peptide was used as responder cells. T2 cells incubated with Foxp3-9-252-9V (-solid circle-) or Foxp3-9-252-WT (-open circle-) peptide and without any peptide (-open square-) were used as stimulator cells in this assay (1×10^4 cells/well).
as §1, §2
On the other hand, the present inventers attempted the induction of CTLs using all substitutions restricted HLA-A*0201 including Foxp3-9-252-9V peptide. […] After CTL line induced by stimulation with Foxp3-9-252-9V was established by in vitro expansion, the CTL activity was determined by using stimulator cells pulsed with Foxp3-9-252-WT or Foxp3-9-252-9V peptide.

peptide-pulsed T2 cells = test: IFN-gamma ELISPOT on CTLs induced with HLA-A0201 restricted Foxp3 peptides; type: cell-based, human; conditions: FIG. 2A/2B/2C
From the text: as §1, §2
Resulting CTLs showing detectable specific CTL activity were shown in FIG. 2A, FIG. 2B and FIG. 2C when performed by IFN-gamma ELISPOT assay.

Sequence | IFN-gamma production of CTLs stimulated with peptide, compared with the control [1] | specific CTL activity [2] | establishment of CTLs [2] | IFN-gamma production of CTLs stimulated with peptide, compared with the control (peptide-pulsed T2 cells) | other results
SYPLLANGV (peptide vaccine) [SEQ ID NO 9] | potent IFN-gamma production | significant and specific CTL activity | CTLs were successfully established | – | –
WFTRMFAFF (peptide vaccine) [SEQ ID NO 7] | potent IFN-gamma production | significant and specific CTL activity | CTLs were successfully established | – | –
KLMAMQAHL (peptide vaccine) [SEQ ID NO 97] | – | – | – | – | CTL induction by stimulation with substituted peptide (HLA-A2 molecule): CTLs were induced; IFN-gamma production compared with the control (HLA-A2 molecule; listed as Foxp3-9-252-3M): showed IFN-gamma production; IFN-gamma production compared with the control (HLA-A2 molecule; listed as Foxp3-A02-9-252-3M): peptide-dependent IFN-gamma production
KLLAMQAHL (peptide vaccine) [SEQ ID NO 98] | – | – | – | – | CTL induction by stimulation with substituted peptide (HLA-A2 molecule): CTLs were induced; IFN-gamma production compared with the control (HLA-A2 molecule; listed as Foxp3-9-252-3L): showed IFN-gamma production; IFN-gamma production compared with the control (HLA-A2 molecule; listed as Foxp3-A02-9-252-3L): peptide-dependent IFN-gamma production
IYHWFTRMF (peptide vaccine) [SEQ ID NO 3] | potent IFN-gamma production | significant and specific CTL activity | CTLs were successfully established | – | –
LVLEKEKLSA (peptide vaccine) [SEQ ID NO 37] | – | significant and specific CTL activity | CTLs were successfully established | potent IFN-gamma production | –
LLQREMVQSL (peptide vaccine) [SEQ ID NO 28] | – | significant and specific CTL activity | CTLs were successfully established | potent IFN-gamma production | –
VFEEPEDFL (peptide vaccine) [SEQ ID NO 4] | potent IFN-gamma production | significant and specific CTL activity | CTLs were successfully established | – | –
VMVAPSGARL (peptide vaccine) [SEQ ID NO 30] | – | significant and specific CTL activity | CTLs were successfully established | potent IFN-gamma production | –
LQLPTLPLV (peptide vaccine) [SEQ ID NO 16] | – | significant and specific CTL activity | CTLs were successfully established | potent IFN-gamma production | –
SLFAVRRHL (peptide vaccine) [SEQ ID NO 19] | – | significant and specific CTL activity | CTLs were successfully established | potent IFN-gamma production | –
RPPFTYATL (peptide vaccine) [SEQ ID NO 8] | potent IFN-gamma production | significant and specific CTL activity | CTLs were successfully established | – | –
GINVASLEWV (peptide vaccine) [SEQ ID NO 29] | – | significant and specific CTL activity | CTLs were successfully established | potent IFN-gamma production | –
QLQLPTLPL (peptide vaccine) [SEQ ID NO 18] | – | significant and specific CTL activity | CTLs were successfully established | potent IFN-gamma production | –
KMALTKASSV (peptide vaccine) [SEQ ID NO 24] | – | significant and specific CTL activity | CTLs were successfully established | potent IFN-gamma production | –
TLNEIYHWFT (peptide vaccine) [SEQ ID NO 22] | – | significant and specific CTL activity | CTLs were successfully established | potent IFN-gamma production | –
RTPVLQVHPL (peptide vaccine) [SEQ ID NO 12] | potent IFN-gamma production | significant and specific CTL activity | CTLs were successfully established | – | –
KFHNMRPPF (peptide vaccine) [SEQ ID NO 5] | potent IFN-gamma production | significant and specific CTL activity | CTLs were successfully established | – | –
